Here are results for eight compounds from article PMC12169608, “Peptidomimetic Phenoxymethyl Ketone Warheads as Potent Dual-Mode Inhibitors against SARS-CoV‑2 M^pro and Cathepsin” (Journal of Medicinal Chemistry, 2025).

Data set [1] has as its target mouse cathepsin L (mCTSL) (Mus musculus, UniProt P06797). The data set can be described thus: mCTSL biochemical assay.
Data set [2] concerns the target SARS-CoV-2 M^pro (Severe acute respiratory syndrome coronavirus 2, UniProt P0DTD1). The data set can be described thus: biochemical. The data set is classed as biochemical. The settings on record: for M^pro inhibition, IC50 range in words: biochemical assay; for IC50: read-out: M^pro biochemical assay pIC50 (converted).
Data set [3] deals with T1, human cathepsin L (hCTSL) (Homo sapiens, UniProt P07711).
T1 construct: purchased R&D Systems
The experiment in a line: hCTSL biochemical assay. The conditions noted are these: for hCTSL inhibition, IC50 range in words: biochemical assay.

The target in data set [4] is human cathepsin B (hCTSB) (Homo sapiens, UniProt P07858). The experiment in a line: hCTSB biochemical assay.
Data set [5] deals with luciferase-expressing VSV (ΔG) pseudotyped with Spike from SARS-CoV-2. The data set can be described thus: microbe, parasite or virus in culture. Format: cell-based. The settings on record: Vesicular stomatitis virus, Vero C1008, read-out: Entry reporter assay pEC50 (converted). A general note: In a reporter assay the amount or activity of a reporter protein is the signal.
The subject of data set [6] is SARS-CoV-2. The experiment in a line: microbe, parasite or virus in culture. The settings on record: for EC50: Severe acute respiratory syndrome coronavirus 2, Vero C1008, read-out: SARS-CoV-2 CPE reduction assay pEC50 (converted). The data set is classed as cell-based.
The nature of data set [7]: in vitro. The settings on record: African green monkey.
For data set [8] the following is noted: 3 h, 2 µM.
Data set [9] is described as follows: physchem. The conditions noted are these: pH 7.4.
Data set [10] in a line: in vitro. The conditions noted are these: mouse, plasma, mouse plasma protein binding.
Data set [11] is described as follows: in vitro. The conditions noted are these: mouse, hepatocytes, CLint (mouse hepatocytes).
For data set [12] the following is noted: microsomes, 10 µM, pH 7.4.
Data set [13] is described as follows: physchem. The settings on record: pH 7.4. This is another data set of the same source.
Setting [14] is: read-out: pIC50 (mouse CTSL) (converted).

The structures appear in SMILES notation. In brackets after ≈: the same amount, converted by molar mass. Read-outs that look alike come from different tables or passages of the source. Some results are limits rather than exact numbers.

T1 sequence (P07711 114-333): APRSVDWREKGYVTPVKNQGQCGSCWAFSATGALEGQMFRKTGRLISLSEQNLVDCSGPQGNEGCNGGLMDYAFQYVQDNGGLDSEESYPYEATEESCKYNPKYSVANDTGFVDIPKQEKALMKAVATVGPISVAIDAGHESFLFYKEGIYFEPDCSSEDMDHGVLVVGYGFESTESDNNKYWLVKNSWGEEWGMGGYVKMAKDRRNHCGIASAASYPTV
mouse cathepsin L (mCTSL), sequence (P06797 114-334): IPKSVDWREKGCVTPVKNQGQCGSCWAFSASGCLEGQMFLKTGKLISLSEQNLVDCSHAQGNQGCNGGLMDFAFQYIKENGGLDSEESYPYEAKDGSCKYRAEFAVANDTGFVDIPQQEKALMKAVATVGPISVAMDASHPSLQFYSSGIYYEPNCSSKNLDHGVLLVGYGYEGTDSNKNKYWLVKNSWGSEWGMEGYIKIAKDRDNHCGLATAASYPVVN

Compound `CC(C)(C)[C@H](NC(=O)C(F)(F)F)C(=O)N1C[C@H]2[C@@H]([C@H]1C(=O)N[C@H](C#N)C[C@@H]1CCNC1=O)C2(C)C` [Nirmatrelvir, reference compound] returned an IC50 in data set [1] greater than 50100 nM.

For `COc1cccc2[nH]c(C(=O)N[C@H](Cc3cccc(F)c3)C(=O)N[C@@H](C[C@@H]3CCNC3=O)C(=O)COc3c(F)c(F)c(CO)c(F)c3F)cc12` [compound 2, N-((R)-3-(3-Fluorophenyl)-1-oxo-1-(((S)-3-oxo-1-((S)-2-oxopyrrolidin-3-yl)-4-(2,3,5,6-tetrafluoro-4-(hydroxymethyl)phenoxy)butan-2-yl)amino)propan-2-yl)-4-methoxy-1H-indole-2-carboxamide], in data set [2], the “M^pro inhibition, IC50 range in words” value is reported as “only micromolar inhibition” and the IC50 is 4270 nM. Further, in data set [3], the “hCTSL biochemical assay pIC50” value came to 4.67 and the “hCTSL inhibition, IC50 range in words” value was “only micromolar inhibition”. In addition, in data set [4], the “hCTSB biochemical assay pIC50” value worked out at 5.14. For the same compound, the IC50 in [1] (setting [14]) was 13500 nM. For the same compound, the EC50 in data set [5] was greater than 50100 nM. Further, in [6], the “fold less active than 1 in the SARS-CoV-2 CPE reduction assay” value is roughly 169 fold and the EC50 is 21900 nM. In data set [7], this compound had a CC50 greater than 74100 nM.

As for `CCCCCCCC(=O)N[C@@H](Cc1cccc(F)c1)C(=O)N[C@@H](C[C@@H]1CCNC1=O)C(=O)COc1c(F)c(F)c(CO)c(F)c1F` [compound 3, N-((S)-3-(3-Fluorophenyl)-1-oxo-1-(((S)-3-oxo-1-((S)-2-oxopyrrolidin-3-yl)-4-(2,3,5,6-tetrafluoro-4-(hydroxymethyl)phenoxy)butan-2-yl)amino)propan-2-yl)octanamide], the IC50 in data set [2] is 11.5 nM; in data set [1] (setting [14]), 75.9 nM. The “hCTSL biochemical assay pIC50” value in data set [3] worked out at 7.39. Moreover, in data set [4], the “hCTSB biochemical assay pIC50” value is on record as 7.92. Besides, the EC50 in [6] is 70.8 nM. The “mouse plasma protein binding, fraction bound (Fb)” value in [8] was determined as 99.59%. Further, the CC50 in [7] was greater than 501 nM. Also, in data set [9], the logD at 1 h was 2.23. The fraction unbound at 3 h, 2 µM in data set [10] (fraction bound (Fb)) and in data set [10] (fraction unbound (Fu)) was 0.0041 each time. The compound further registered a hepatocyte CLint at 2 h, 2 µM in [11] of 206 µL/min/1e6 cells.

As to `CCCCCCCCCCCCCCCC(=O)N[C@@H](Cc1cccc(F)c1)C(=O)N[C@@H](C[C@@H]1CCNC1=O)C(=O)COc1c(F)c(F)c(CO)c(F)c1F` [compound 4, N-((S)-3-(3-Fluorophenyl)-1-oxo-1-(((S)-3-oxo-1-((S)-2-oxopyrrolidin-3-yl)-4-(2,3,5,6-tetrafluoro-4-(hydroxymethyl)phenoxy)butan-2-yl)amino)propan-2-yl)palmitamide], in [2], the “M^pro inhibition, IC50 range in words” value is “only micromolar inhibition” and the IC50 is 3800 nM. In addition, in data set [3], the “hCTSL biochemical assay pIC50” value is recorded as less than 4.30 and the “hCTSL inhibition, IC50 range in words” value is recorded as “only micromolar inhibition”. The “hCTSB biochemical assay pIC50” value in data set [4] was found to be 5.11. In [1] (setting [14]), the IC50 was 10500 nM. The EC50 in data set [5] is 5620 nM. Further, in data set [6], the EC50 was 2240 nM. Further, in [7], the CC50 was greater than 25100 nM. The compound further came in with a logD in data set [9] greater than 3.5. The same compound showed an intrinsic clearance (hepatocyte CLint) at 2 h, 2 µM in data set [11] of 9.31 µL/min/1e6 cells.

As to `COc1cccc2[nH]c(C(=O)N[C@@H](Cc3cccc(F)c3)C(=O)N[C@@H](C[C@@H]3CC(=O)NC3=O)C(=O)COc3c(F)c(F)c(CO)c(F)c3F)cc12` [compound 6, N-((S)-1-(((S)-1-((R)-2,5-Dioxopyrrolidin-3-yl)-3-oxo-4-(2,3,5,6-tetrafluoro-4-(hydroxymethyl)phenoxy)butan-2-yl)amino)-3-(3-fluorophenyl)-1-oxopropan-2-yl)-4-methoxy-1H-indole-2-carboxamide], the figures for the IC50 in data set [2] and in data set [1] (setting [14]) were 6.03 nM and 97.7 nM, respectively. Moreover, the “hCTSL biochemical assay pIC50” value in [3] is recorded as 7.89. Besides, the “hCTSB biochemical assay pIC50” value in [4] was determined as 6.55. Moreover, in data set [6], the EC50 was 1910 nM. Moreover, the “Peak area (%) by LCMS, mouse liver microsomal stability assay of 1” value was determined as 0% in [12] (0 h); 2.5% in data set [12] (5 min); 10.2% in data set [12] (0.25 h); 19.2% in data set [12] (0.5 h); 23.2% in data set [12] (0.75 h); 24.9% in data set [12] (1 h). In addition, the CC50 in data set [7] is greater than 25100 nM. The compound further had a logD at 1 h in data set [9] of 3.08. For the same compound, in data set [13], the kinetic solubility at 24 h was found to be 20.9 µM (≈ 15 µg/mL). The compound also had a hepatocyte CLint at 2 h, 2 µM in data set [11] of 156 µL/min/1e6 cells.

`COc1cccc2[nH]c(C(=O)N[C@@H](Cc3cccc(F)c3)C(=O)N[C@@H](C[C@@H]3CC(=O)NC3=O)C(=O)COc3c(F)c(F)c(C(C)O)c(F)c3F)cc12` (stereo partly drawn) [compound 9, N-((2S)-1-(((2S)-1-((R)-2,5-Dioxopyrrolidin-3-yl)-3-oxo-4-(2,3,5,6-tetrafluoro-4-(1-hydroxyethyl)phenoxy)butan-2-yl)amino)-3-(3-fluorophenyl)-1-oxopropan-2-yl)-4-methoxy-1H-indole-2-carboxamide]: the IC50 in data set [2] was 5.5 nM; in data set [1] (setting [14]), 158 nM. The “hCTSL biochemical assay pIC50” value in data set [3] was 7.65. For the same compound, the “hCTSB biochemical assay pIC50” value in data set [4] is 6.09. Also, the EC50 in data set [6] is 1200 nM. Also, the CC50 in data set [7] was greater than 10000 nM. The same compound gave a logD at 1 h in data set [9] of 2.6. The solubility (kinetic) at 24 h in data set [13] was 6.33 µM (≈ 4.62 µg/mL). The same compound returned a hepatocyte CLint at 2 h, 2 µM in data set [11] of 134 µL/min/1e6 cells.

In the case of `COc1cccc2[nH]c(C(=O)N[C@@H](Cc3cccc(F)c3)C(=O)N[C@@H](C[C@@H]3CC(=O)NC3=O)C(=O)COc3c(F)c(F)c(C(C)(C)O)c(F)c3F)cc12` [compound 11], the figures for the IC50 in data set [2] and in [1] (setting [14]) were 6.76 nM and 316 nM, respectively. The “hCTSL biochemical assay pIC50” value in [3] stood at 7.95. In addition, the “hCTSB biochemical assay pIC50” value in data set [4] is 5.88. In addition, the EC50 was 8910 nM in data set [5] and 759 nM in data set [6]. Also, in [6], the “fold less active than 1 in the SARS-CoV-2 CPE reduction assay” value is roughly 6 fold. In addition, the CC50 in data set [7] was greater than 5010 nM. Moreover, in [9], the logD at 1 h is 2.03. Moreover, in data set [13], the kinetic solubility at 24 h amounted to 0.88 µM (≈ 0.655 µg/mL). The compound further displayed a hepatocyte CLint at 2 h, 2 µM in [11] of 124 µL/min/1e6 cells.

With `COc1cccc2[nH]c(C(=O)N[C@@H](Cc3cccc(F)c3)C(=O)N[C@@H](C[C@@H]3CCNC3=O)C(=O)COc3c(F)c(F)cc(F)c3F)cc12` [compound 15, reference compound], the “selectivity for M^pro over hCTSL” value in data set [2] (biochemical assays) is reported as roughly 7 fold. For the same compound, the IC50 in data set [2] is 5.89 nM; in data set [1] (setting [14]), 603 nM. Also, in data set [3], the “hCTSL biochemical assay pIC50” value was determined as 7.39. Besides, in [4], the “hCTSB biochemical assay pIC50” value is listed as 5.46. Moreover, the EC50 in data set [6] was 39.8 nM. Further, the “mouse plasma protein binding, fraction bound (Fb)” value in data set [8] stood at 99.57%. Further, the CC50 in [7] is greater than 1260 nM. The compound further registered a logD at 1 h in [9] of 2.99. In addition, the solubility (kinetic) at 24 h in [13] amounted to 1.4 µM (≈ 0.942 µg/mL). Also, the fraction unbound at 3 h, 2 µM in [10] (fraction bound (Fb)) and in data set [10] (fraction unbound (Fu)) was 0.0043 throughout. The compound also showed a hepatocyte CLint at 2 h, 2 µM in data set [11] of 240 µL/min/1e6 cells.

A word on the logD: it is lipophilicity at a set pH, counting ionised and neutral species. By fraction unbound is commonly meant the share of the substance not bound to proteins or other matrix. Usually hepatocyte CLint stands for the capacity of the preparation to metabolise the compound, expressed as a volume cleared per time. By solubility (kinetic) is commonly meant the concentration staying in solution when a stock, usually in DMSO, is diluted into the medium.
